A short description of data set [1]: Water solubility of crystal forms measured by HPLC. The format is physicochemical. Particulars: 25°C. The method, then: The water solubilities at 25°C of different crystal forms of Entinostat have been measured by HPLC and are set out in the following table: […]
A short description of data set [2]: Compression study (hydraulic press, polymorphic form after compression). The format is physicochemical. The following applies: about 100 mg powder compressed to 5 tonnes/cm^2, held for 1h; slight crystallinity decrease. The method, then: The compression study was performed using a Specac hydraulic press. A sample powder (approx. 100mg) is loaded into a metal die (ring shaped metal holder). A snugly fitted billet (a cylinder-shaped metal rod) is then placed into the die, on top of the powder sample. The die and billet assembly is then placed into the hydraulic press and compressed to a pressure of 5 tonnes/cm^2 and held under that pressure for 1h. The billet is then removed and the disc extracted from the die.

In turn, `Nc1ccccc1NC(=O)c1ccc(CNC(=O)OCc2cccnc2)cc1` [Form A, (pyridin-3-yl)methyl 4-(2-aminophenylcarbamoyl)benzylcarbamate] displayed a Water solubility in data set [1] of 48 µg/mL. Also, in data set [2], the “polymorphic form after compression” value was “maintain the same polymorphic form”.

The compound `Nc1ccccc1NC(=O)c1ccc(CNC(=O)OCc2cccnc2)cc1` [Form B, (pyridin-3-yl)methyl 4-(2-aminophenylcarbamoyl)benzylcarbamate] gave a Water solubility in data set [1] of 28 µg/mL. In addition, in data set [2], the “polymorphic form after compression” value is given as “maintain the same polymorphic form”.

Consider `Nc1ccccc1NC(=O)c1ccc(CNC(=O)OCc2cccnc2)cc1` [Form D, (pyridin-3-yl)methyl 4-(2-aminophenylcarbamoyl)benzylcarbamate], for which the Water solubility in data set [1] turned out to be 130 µg/mL. In addition, in data set [2], the “polymorphic form after compression” value is “maintain the same polymorphic form”.
